Test results reported in PMC3070799 (Neuropharmacology, 2011).
Several values for one entry are separate records, joined by “and”; a condition that tells them apart may be missing. Identical values can stand only once.

Tests used:
[1] = biological target: T1, human 5-HT3A receptors (Homo sapiens, UniProt P46098); experiment: Two-electrode voltage clamp of 5-HT-induced currents in Xenopus oocytes, incl. co-application; type: cell-based; conditions: for use-dependence of inhibition: 3 μM 5-HT applied at 1 min intervals in continued presence of antagonist; for ratio of current amplitudes at +40 mV relative to −40 mV (voltage-dependence): compared with absence of antagonist, Fig. 2E; for Hill slope: concentration-inhibition curve, 1.7 μM 5-HT; for potency at 5-HT3A relative to GABA and glycine receptors: less potent than at GABA and glycine receptors, ref Huang et al., 2004, Hawthorne et al., 2006
T1 construct: expressed in transfected cells; host or cells: Xenopus laevis oocytes (cRNA from pGEMHE)
T1 sequence (P46098 24-478): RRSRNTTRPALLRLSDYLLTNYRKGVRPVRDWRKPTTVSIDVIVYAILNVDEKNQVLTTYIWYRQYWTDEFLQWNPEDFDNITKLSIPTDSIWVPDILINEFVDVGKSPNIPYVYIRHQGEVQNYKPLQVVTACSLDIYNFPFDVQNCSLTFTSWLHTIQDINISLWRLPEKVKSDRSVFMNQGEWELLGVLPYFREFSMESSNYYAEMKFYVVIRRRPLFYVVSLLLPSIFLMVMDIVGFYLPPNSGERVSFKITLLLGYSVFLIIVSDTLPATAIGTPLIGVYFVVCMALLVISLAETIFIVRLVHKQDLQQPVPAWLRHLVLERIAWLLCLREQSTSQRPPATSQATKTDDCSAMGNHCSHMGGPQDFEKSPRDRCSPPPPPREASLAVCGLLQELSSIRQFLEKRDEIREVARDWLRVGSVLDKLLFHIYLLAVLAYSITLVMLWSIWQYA
Protocol: Stage V and VI oocytes were injected with 50 nl of ∼300 ng μl^−1 cRNA, and currents were recorded 1–4 days post-injection. A ratio of 1:3 (A:B) was used for the expression of heteromeric 5-HT3 receptors.
Xenopus laevis oocyte positive females were purchased from NASCO (Fort Atkinson, Wisconsin, USA) and maintained according to standard methods.
Currents were filtered at a frequency of 1 kHz. Micro-electrodes were fabricated from borosilicate glass (GC120TF-10, Harvard Apparatus, Edenbridge, Kent, UK) using a two stage horizontal pull (P-87, Sutter Instrument Company, California, USA) and filled with 3 M KCl. […] Oocytes were perfused with saline at a rate of 15 ml min^−1. Drug application was via a simple gravity fed system calibrated to run at the same rate. Extracellular saline contained (mM), 96 NaCl, 2 KCl, 1 MgCl2 and 5 mM HEPES; adjusted to pH 7.4 with NaOH.
Analysis and curve fitting was performed using Prism V3.02 (GraphPad Software, San Diego, California, USA, www.graphpad.com). Concentration-response data for each oocyte was normalised to the maximum current for that oocyte. For inhibition curves, antagonists were routinely co-applied in the presence of agonist. For PXN, oocytes were also pre-treated with the compound for 20 s. A 2 min wash was used between drug applications. The mean and S.E.M. for a series of oocytes was plotted against agonist or antagonist concentration and iteratively fitted (GraphPad Prism v3.02) to the following Hill equation:(1) IA=Imin+Imax−Imin/1+10^nH(logA50−logA) where A is the concentration of ligand present; IA is the current in the presence of ligand concentration A; Imin is the current when A = 0; Imax is the current when A = ∞ , A50 is the concentration of A which evokes a current equal to (Imax + Imin)/2; and nH is the Hill coefficient. Results are presented as mean ± S.E.M.. Statistical analysis was performed using ANOVA in conjunction with a Dunnett’s post-hoc test.
97) • Scenario 1: Where compounds share a binding site it was assumed that the extent of binding would be determined by a competitive interaction between the compounds such that the proportion of binding sites occupied (Pocc) in the presence of two competing compounds is given by the following expression: (2) Pocc=AKA+BKB/1+AKA+BKB where A and B are the concentrations of two ligands and KA and KB are their affinity constants respectively.
In each individual experiment, for each combination of inhibitors, data values were obtained for IA, IB and IAB. From IA and IB predicted values of IAB1 and IAB2 were also derived. A two-way ANOVA was performed on values of IAB, IAB1 and IAB2 in which the distinction between IAB, IAB1 and IAB2 was treated as a fixed factor and the variation in levels of inhibition between experiments was treated as a random factor. Where the ANOVA indicated a significant difference (P < 0.05) between IAB, IAB1 and IAB2 a post-hoc analysis was carried out using the Waller–Duncan method to identify homogenous subsets with a significance level of 0.05 and a Type I /Type II error ratio if 100.
Our models were based on the following assumptions: 1. that the channel blocking compounds only effect the response that is seen when the channel is open. […] In the case of condition 5 it is possible that the binding of one compound may prevent access of another to its own site. However, in practice this will not influence the analysis since the functional consequence of the binding of both compounds compared to one will be the same, namely complete channel blockade.

[2] = biological target: glycine α1 receptors; parameters: method as in Yang et al., 2007; conditions: ref Yang et al., 2007; cited from earlier work
[3] = tested on: glycine α2 receptors; parameters: method as in earlier work; conditions: more potent than PTN; ref Chen et al., 2006; Curtis and Johnston, 1974; Yang et al., 2007; cited from earlier work
[4] = biological target: glycine α1β receptors; parameters: method as in Yang et al., 2007; conditions: ref Yang et al., 2007; cited from earlier work
[5] = tested on: GABAA receptor; parameters: method as in earlier work; conditions: more potent than PTN; ref Chen et al., 2006; Curtis and Johnston, 1974; Yang et al., 2007; cited from earlier work
[6] = GB 300 μM, use-dependency experiment, Fig. 3A

Row | Molecule | IC50 [1] [µM] | use-dependence of inhibition ([1]; GB 300 μM) | current on washout ([1]; 6 mM) | ratio of current amplitudes at +40 mV relative to −40 mV (voltage-dependence) [1] | Hill slope [1] | potency at 5-HT3A relative to GABA and glycine receptors [1] [fold] | IC50 [2] [µM] | potency relative to PTN [3] [fold] | IC50 [4] [µM] | potency relative to PTN [5] [fold] | Level of inhibition (1 − (I/Imax)) PXN ([1]; PXN 5 μM applied alone) | effect on 5-HT concentration-response curves ([1]; PXN between 1–50 × IC50) | inhibition at 5 µM ([1]; read-out: Level of inhibition (1 − (I/Imax)) PXN, PXN 5 μM applied alone) [%] | Level of inhibition (1 − (I/Imax)) GB ([1]; GB 11 μM applied alone) | percentage inhibition measured at peak [1, 6] [%] | percentage inhibition measured during the first application [1, 6] [%] | first 5-HT response as % of the second 5-HT response (recovery) ([1]; after 0.3 mM GB) [%]
1 | CC(C)(C)[C@]1(O)CC2OC(=O)CC23C(=O)OC2OC(=O)[C@H](O)C231 (stereo partly shown) [BB, bilobalide] | 470 | remained stable | transient rebound current was observed | unaltered | 1.48 ± 0.16 | ~100 | – | – | – | – | – | – | – | – | – | – | –
2 | C=C(C)[C@@H]1[C@H]2OC(=O)[C@@H]1[C@]1(O)C[C@H]3O[C@]34C(=O)O[C@H]2[C@]14C [PXN, picrotoxinin] | 10.7 | remained stable | – | unaltered | 0.68 ± 0.12 | – | ~5 | ~30 | ~30 | ~50 | 0.35 ± 0.03 | rightwards shifts and a reduction in the maximal current | 48 ± 4 | – | – | – | –
3 | ginkgolide B [GB] | – | use-dependent | – | unaltered | 1.10 ± 0.13 | ~100 | – | – | – | – | – | – | – | 0.25 ± 0.01 and 0.26 ± 0.05 | 31 ± 3.1 | 38 ± 0.8 | 91 ± 2
